Common to all, as to assay type: cell-based
The target in assay [1] is T1, AGTR1 (Homo sapiens, UniProt P30556).
T1 construct: host or cells: Pathunter CHO-K1 AGTR1 β-arrestin cell line (CHO-K1)
T1 sequence (P30556 1-359): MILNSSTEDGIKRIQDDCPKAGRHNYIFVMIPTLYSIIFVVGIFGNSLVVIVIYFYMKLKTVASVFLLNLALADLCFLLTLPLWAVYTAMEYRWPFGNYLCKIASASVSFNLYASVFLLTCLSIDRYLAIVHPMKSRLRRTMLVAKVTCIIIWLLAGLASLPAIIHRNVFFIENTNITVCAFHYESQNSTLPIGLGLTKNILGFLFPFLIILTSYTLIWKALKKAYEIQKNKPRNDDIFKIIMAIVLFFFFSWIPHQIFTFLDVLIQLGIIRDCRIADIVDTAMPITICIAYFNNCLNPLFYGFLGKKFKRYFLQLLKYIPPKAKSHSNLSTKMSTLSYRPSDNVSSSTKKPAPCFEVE
The assay can be described thus: DiscoveRx IP1 accumulation assay (HTRF), agonist mode, Pathunter CHO-K1 AGTR1 β-arrestin cell line. The settings on record: for EC50: read-out: IP-1 EC50. In outline: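 Agonist mode in CHO-K1 AGTR1 β-arrestin cells plated 14-16 h before; compounds at varying concentrations for 90 min at 37° C, IP1 accumulation read by HTRF (D2-conjugate and anti-IP1 cryptate, 20 min room temperature). EC50 from 4-parameter logistic fit; activity given as percentage of maximal AII effect.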
Background: In TR-FRET formats the signal depends on donor and acceptor labels being close together.

Assay [2] concerns the target T1, AGTR1. The assay can be described thus: DiscoveRx β-arrestin2 recruitment assay (enzyme complementation, Pathunter CHO-K1 AGTR1 β-arrestin cell line). The settings on record: DiscoveRx β-arrestin2 recruitment; for DiscoveRx β-arrestin2 Ymax (%): maximal response. The procedure, abridged: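 CHO-K1 cells expressing AGTR1 with β-arrestin2 enzyme-complementation reporter, plated 14-16 h ahead in 1% serum medium, then exposed to compounds for 90 min at 37° C. Chemiluminescence read after 1 h detection. EC50 (agonist) or IC50 (antagonist) from 4-parameter logistic fit; activity as percentage of All maximal effect.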
For orientation: Recruitment of arrestin is a read-out of receptor activation apart from second messengers.

In another assay the target is T2, hAT1R (Homo sapiens, UniProt P30556).
T2 sequence (P30556 1-359): T1 sequence (P30556 1-359)
The assay can be described thus: BRET β-arrestin2 biosensor assay, higher receptor expression (hAT1R 5 ng/well), HEK293 cells. The following applies: for EC50: High AT1R Expression. Background: Bioluminescence resonance energy transfer reports proximity on the nanometre scale.

Turning to `CCCCc1nc(Cl)c(CO)n1Cc1ccc(-c2cc(-c3ccccc3)ccc2-c2nnn[nH]2)cc1` [Example 35, (1-((6′-(1H-Tetrazol-5-yl)-[1,1′:3′,1″-terphenyl]-4-yl)methyl)-2-butyl-4-chloro-1H-imidazol-5-yl)methanol], the EC50 at AGTR1 [1] was above 50000 nM. On AGTR1 [2], it took 64 nM to reach a half-maximal effect (EC50) and the “DiscoveRx β-arrestin2 Ymax (%)” value was determined as 28.2%. At hAT1R, the “BRET β-Arrestin2 High AT1R Expression Ymax (%)” value stood at 76.7% and the EC50 amounted to 148 nM.
In the case of `CCCCC1=NC2(CCCC2)C(=O)N1Cc1ccc(-c2cc(-c3ccsc3)ccc2-c2nn[nH]n2)cc1` [Example 130], on AGTR1 [1], the “IP-1 Ymax (%)” value turned out to be 5.9% and the EC50 came out at 108 nM. In addition, at AGTR1 [2], the EC50 worked out at 21.9 nM and the “DiscoveRx β-arrestin2 Ymax (%)” value is given as 31.2%. At hAT1R, the “BRET β-Arrestin2 High AT1R Expression Ymax (%)” value is 80.0% and the EC50 amounted to 26.1 nM.
Take `CCCCC1=NC2(CCCC2)C(=O)N1Cc1ccc(-c2cc(-c3cccc(F)c3F)ccc2-c2noc(=O)[nH]2)cc1` [Example 144, 3-(4″-((2-butyl-4-oxo-1,3-diazaspiro[4.4]non-1-en-3-yl)methyl)-2,3-difluoro-[1,1′:3′,1″-terphenyl]-4′-yl)-1,2,4-oxadiazol-5(4H)-one]: the EC50 on AGTR1 [1] is above 100000 nM. Also, on AGTR1 [2], the EC50 was 12.3 nM and the “DiscoveRx β-arrestin2 Ymax (%)” value came out at 33.3%. Besides, at hAT1R, the “BRET β-Arrestin2 High AT1R Expression Ymax (%)” value is reported as 104.0% and the EC50 stood at 26.8 nM.
The like results for `CCCCC1=NC2(CCCC2)C(=O)N1Cc1ccc(-c2cc(N3CCC[C@@H](C)C3)ccc2-c2nn[nH]n2)cc1` [Example 106] were, in that order, above 100000 nM, 17.6 nM, 6.3%, 12.4% and 138 nM.
For the compound `CCCCOC(=O)NS(=O)(=O)c1sc(-c2ccccc2C)cc1-c1ccc(Cn2c(CC)nc3c(C)cc(C)nc32)cn1` [Example 39, Butyl (3-(5-((2-ethyl-5,7-dimethyl-3H-imidazo[4,5-b]pyridin-3-yl)methyl)pyridin-2-yl)-5-(o-tolyl)thiophen-2-yl)sulfonylcarbamate], on AGTR1 [1], the “IP-1 Ymax (%)” value was found to be 4.8% and the EC50 came out at 126 nM. At AGTR1 [2], the EC50 stood at 33.1 nM and the “DiscoveRx β-arrestin2 Ymax (%)” value was determined as 23.3%. Besides, on hAT1R, the “BRET β-Arrestin2 High AT1R Expression Ymax (%)” value is 37.9% and it took 18.8 nM to reach a half-maximal effect (EC50).
With `CCc1nc2c(C)cc(C)nc2n1Cc1ccc(-c2cc(-n3ccc4cc(F)ccc43)ccc2-c2nn[nH]n2)cc1` [Example 85], the EC50 is above 100000 nM on AGTR1 [1], 18.2 nM on AGTR1 [2] and 10.5 nM at hAT1R. The “DiscoveRx β-arrestin2 Ymax (%)” value on AGTR1 [2] is recorded as 16.9%. Besides, on hAT1R, the “BRET β-Arrestin2 High AT1R Expression Ymax (%)” value is 88.3%.
For `CCc1nc2c(C)cc(C)nc2n1Cc1ccc(-c2cc(-c3cccs3)ccc2-c2nn[nH]n2)cc1` [Example 12], at AGTR1 [1], the EC50 is above 1000 nM. At AGTR1 [2], the EC50 was 6.3 nM and the “DiscoveRx β-arrestin2 Ymax (%)” value amounted to 21.4%. Moreover, on hAT1R, the “BRET β-Arrestin2 High AT1R Expression Ymax (%)” value came to 83.6% and the EC50 amounted to 9 nM.
For `CCCCC1=NC2(CCCC2)C(=O)N1Cc1ccc(-c2cc(-c3ccccc3CO)ccc2-c2nn[nH]n2)cc1` [Example 128], in that order: above 100000 nM, 25.7 nM, 14.5%, 11.0% and 133 nM.
Regarding `CCCCC1=NC2(CCCC2)C(=O)N1Cc1ccc(-c2cc(-n3ccc4ccccc43)ccc2-c2nn[nH]n2)cc1` [Example 105], the EC50 at AGTR1 [1] is above 100000 nM. In addition, at AGTR1 [2], the EC50 was 16 nM and the “DiscoveRx β-arrestin2 Ymax (%)” value is reported as 31.0%. At hAT1R, the “BRET β-Arrestin2 High AT1R Expression Ymax (%)” value is listed as 58.0% and the EC50 was determined as 28.9 nM.
The like results for `CCc1nc2c(C)cc(C)nc2n1Cc1ccc(-c2cc(-c3ccc4ncccc4c3)ccc2-c2nn[nH]n2)cc1` [Example 13] were, in that order, above 1000 nM, 12.9 nM, 24.8%, 53.8% and 11.5 nM.
As for `CCc1nc2c(C)cc(C)nc2n1Cc1ccc(-c2cc(-c3cccc(C(=O)N(C)C)c3)ccc2-c2nn[nH]n2)cc1` [Example 23], on AGTR1 [1], the “IP-1 Ymax (%)” value worked out at 7.3% and the EC50 amounted to 211 nM. On AGTR1 [2], the EC50 worked out at 54.1 nM and the “DiscoveRx β-arrestin2 Ymax (%)” value came out at 26.8%. Besides, on hAT1R, the “BRET β-Arrestin2 High AT1R Expression Ymax (%)” value is 66.3% and the EC50 is 170 nM.
Consider `CCc1nc2c(C)cc(C)nc2n1Cc1ccc(-c2cc(-c3ccc(OC(F)(F)F)cc3)ccc2-c2nn[nH]n2)cc1` [Example 6], for which, at AGTR1 [1], the “IP-1 Ymax (%)” value is on record as 4.9% and the EC50 is 14.6 nM. Besides, at AGTR1 [2], the EC50 is 14.1 nM and the “DiscoveRx β-arrestin2 Ymax (%)” value came out at 27.0%. Moreover, on hAT1R, the “BRET β-Arrestin2 High AT1R Expression Ymax (%)” value is listed as 73.5% and a half-maximal response (EC50) required 51 nM.
Consider `CCc1nc2c(C)cc(C)nc2n1Cc1ccc(-c2cc(N3CCCC(C)(C)C3)ccc2-c2nn[nH]n2)cc1` [Example 98, 3-((5′-(3,3-dimethylpiperidin-1-yl)-2′-(2H-tetrazol-5-yl)-[1,1′-biphenyl]-4-yl)methyl)-2-ethyl-5,7-dimethyl-3H-imidazo[4,5-b]pyridine], for which, at AGTR1 [1], the “IP-1 Ymax (%)” value amounted to 6.6% and the EC50 is 26.7 nM. On AGTR1 [2], the EC50 was 18.8 nM and the “DiscoveRx β-arrestin2 Ymax (%)” value is 72.9%. In addition, at hAT1R, the “BRET β-Arrestin2 High AT1R Expression Ymax (%)” value came to 86.6% and the EC50 amounted to 20.3 nM.
In the case of `CCc1nc2c(C)cc(C)nc2n1Cc1ccc(-c2cc(N3C(=O)c4ccccc4C3=O)ccc2-c2nn[nH]n2)cc1` [Example 27, 2-(4′-((2-ethyl-5,7-dimethyl-3H-imidazo[4,5-b]pyridin-3-yl)methyl)-6-(2H-tetrazol-5-yl)-[1,1′-biphenyl]-3-yl)isoindoline-1,3-dione], the EC50 at AGTR1 [1] was above 100000 nM. Besides, at AGTR1 [2], the EC50 is 206 nM and the “DiscoveRx β-arrestin2 Ymax (%)” value is 10.6%. Besides, at hAT1R, the “BRET β-Arrestin2 High AT1R Expression Ymax (%)” value is given as 20.1% and the EC50 was determined as 89.5 nM.
`CCCCC1=NC2(CCCC2)C(=O)N1Cc1ccc(-c2cc(-c3ccc(C(=O)NC)cc3)ccc2-c2nn[nH]n2)cc1` [Example 124]: on AGTR1 [1], the EC50 was above 100000 nM. Further, on AGTR1 [2], the EC50 came to 64.9 nM and the “DiscoveRx β-arrestin2 Ymax (%)” value was 28.1%. At hAT1R, the “BRET β-Arrestin2 High AT1R Expression Ymax (%)” value is listed as 32.6% and the midpoint of the response, the EC50, lay at 138 nM.
For `CCc1nc2c(C)cc(C)nc2n1Cc1ccc(-c2cc(Oc3ccc(C)cn3)ccc2-c2nn[nH]n2)cc1` [Example 248], at AGTR1 [1], the “IP-1 Ymax (%)” value turned out to be 6.8% and the EC50 came out at 81.7 nM. At AGTR1 [2], the EC50 was 26.5 nM and the “DiscoveRx β-arrestin2 Ymax (%)” value was 18.2%. At hAT1R, the “BRET β-Arrestin2 High AT1R Expression Ymax (%)” value is reported as 79.5% and it took 14 nM to reach a half-maximal effect (EC50).
`CCc1nc2c(C)cc(C)nc2n1Cc1ccc(-c2cc(N3CCC(F)(F)C3)ccc2-c2nn[nH]n2)cc1` [Example 51]: at AGTR1 [1], the “IP-1 Ymax (%)” value is listed as 3.7% and the EC50 came out at 92.1 nM. In addition, on AGTR1 [2], the midpoint of the response, the EC50, lay at 21.2 nM and the “DiscoveRx β-arrestin2 Ymax (%)” value amounted to 21.1%. Besides, on hAT1R, the “BRET β-Arrestin2 High AT1R Expression Ymax (%)” value is recorded as 43.8% and a half-maximal response (EC50) required 99 nM.
Turning to `CCc1nc2c(C)cc(C)nc2n1Cc1ccc(-c2cc(Nc3ccccc3)ccc2-c2nn[nH]n2)cc1` [Example 93], at AGTR1 [1], the “IP-1 Ymax (%)” value stood at 5.4% and the EC50 amounted to 21.2 nM. For the same compound, on AGTR1 [2], the EC50 worked out at 7.9 nM and the “DiscoveRx β-arrestin2 Ymax (%)” value came out at 32.6%. Moreover, on hAT1R, the “BRET β-Arrestin2 High AT1R Expression Ymax (%)” value was found to be 82.8% and the midpoint of the response, the EC50, lay at 7.5 nM.
On to `CCCCC1=NC2(CCCC2)C(=O)N1Cc1ccc(-c2cc(Nc3ccccc3)ccc2-c2nn[nH]n2)cc1` [Example 99, 2-butyl-3-((5′-(phenylamino)-2′-(2H-tetrazol-5-yl)-[1,1′-biphenyl]-4-yl)methyl)-1,3-diazaspiro[4.4]non-1-en-4-one], for which, on AGTR1 [1], the EC50 is above 100000 nM. On AGTR1 [2], the EC50 is 32.4 nM and the “DiscoveRx β-arrestin2 Ymax (%)” value is given as 6.3%. In addition, at hAT1R, the “BRET β-Arrestin2 High AT1R Expression Ymax (%)” value worked out at 9.6% and the EC50 came out at 144 nM.
Take `CCCCOC(=O)NS(=O)(=O)c1sc(-c2ccccc2)cc1-c1ccc(Cn2c(CC)nc3c(C)cc(C)nc32)cc1` [Example 49, Butyl (3-(4-((2-ethyl-5,7-dimethyl-3H-imidazo[4,5-b]pyridin-3-yl)methyl)phenyl)-5-phenylthiophen-2-yl)sulfonylcarbamate]: on AGTR1 [1], the “IP-1 Ymax (%)” value is 4.2% and the EC50 amounted to 21 nM. Further, on AGTR1 [2], the midpoint of the response, the EC50, lay at 10.9 nM and the “DiscoveRx β-arrestin2 Ymax (%)” value is given as 47.6%. Moreover, at hAT1R, the “BRET β-Arrestin2 High AT1R Expression Ymax (%)” value came to 78.3% and the EC50 was 11.2 nM.

What is called EC50 is the midpoint of the concentration-response curve.

The values are drawn from patent US12037324B2, “Biarylmethyl heterocycles” (Université de Montréal, priority 2016, dated 2024).
